Test results as given in patent US20070036839A1, “Phosphorylated glucomannane polysaccharides containing 1-6 and 1-2 linkages increase weight gain in poultry” (priority 2005, published 2007).

Assay: Weekly hematology (CBC with differential); for Red Blood Cells HCT: test concentration or dose not given here; for White Blood Cells BASO: test concentration or dose not given here; for White Blood Cells EOS: test concentration or dose not given here; for White Blood Cells LYMP + MONO: test concentration or dose not given here; for White Blood Cells NEUT: test concentration or dose not given here; for White Blood Cells WBC: test concentration or dose not given here
Type: in vivo, Male Ross x Ross broiler chickens

Candida utilis phosphoglucomannan-soy bean proteins [CUPS]
Others Het/Poly (Day 3, dose group 1): 19.75%
Red Blood Cells HCT (Day 3, dose group 1): 30.67%
White Blood Cells BASO (Day 3, dose group 1): 127.50 X/uL
White Blood Cells EOS (Day 3, dose group 1): 0.00 X/uL
White Blood Cells LYMP + MONO (Day 3, dose group 1): 2590.00 X/uL
White Blood Cells NEUT (Day 3, dose group 1): 782.50 X/uL
White Blood Cells WBC (Day 3, dose group 1): 3000 µL⁻¹
Others Het/Poly (Day 3, dose group 3): 31.67%
Red Blood Cells HCT (Day 3, dose group 3): 27.80%
White Blood Cells BASO (Day 3, dose group 3): 45.00 X/uL
White Blood Cells EOS (Day 3, dose group 3): 0.00 X/uL
White Blood Cells LYMP + MONO (Day 3, dose group 3): 2060.00 X/uL
White Blood Cells NEUT (Day 3, dose group 3): 1061.67 X/uL
White Blood Cells WBC (Day 3, dose group 3): 3170 µL⁻¹
Others Het/Poly (Day 3, dose group 20): 27.00%
Red Blood Cells HCT (Day 3, dose group 20): 27.00%
White Blood Cells BASO (Day 3, dose group 20): 16.00 X/uL
White Blood Cells EOS (Day 3, dose group 20): 16.00 X/uL
White Blood Cells LYMP + MONO (Day 3, dose group 20): 2950.00 X/uL
White Blood Cells NEUT (Day 3, dose group 20): 818.00 X/uL
White Blood Cells WBC (Day 3, dose group 20): 3800 µL⁻¹
Others Het/Poly (Day 7, dose group 1): 45.00%
White Blood Cells BASO (Day 7, dose group 1): 0.00 X/uL
White Blood Cells EOS (Day 7, dose group 1): 0.00 X/uL
White Blood Cells LYMP + MONO (Day 7, dose group 1): 5500.00 X/uL
White Blood Cells NEUT (Day 7, dose group 1): 4500.00 X/uL
White Blood Cells WBC (Day 7, dose group 1): 10000 µL⁻¹
Others Het/Poly (Day 7, dose group 3): 19.67%
White Blood Cells BASO (Day 7, dose group 3): 146.67 X/uL
White Blood Cells EOS (Day 7, dose group 3): 0.00 X/uL
White Blood Cells LYMP + MONO (Day 7, dose group 3): 5273.33 X/uL
White Blood Cells NEUT (Day 7, dose group 3): 1246.67 X/uL
White Blood Cells WBC (Day 7, dose group 3): 6670 µL⁻¹
Others Het/Poly (Day 7, dose group 20): 33.00%
White Blood Cells BASO (Day 7, dose group 20): 180.00 X/uL
White Blood Cells EOS (Day 7, dose group 20): 0.00 X/uL
White Blood Cells LYMP + MONO (Day 7, dose group 20): 4513.33 X/uL
White Blood Cells NEUT (Day 7, dose group 20): 2306.67 X/uL
White Blood Cells WBC (Day 7, dose group 20): 7000 µL⁻¹
Others Het/Poly (Day 15, dose group 1): 37.00%
Red Blood Cells HCT (Day 15, dose group 1): 32.00%
White Blood Cells BASO (Day 15, dose group 1): 266.67 X/uL
White Blood Cells EOS (Day 15, dose group 1): 0.00 X/uL
White Blood Cells LYMP + MONO (Day 15, dose group 1): 6963.33 X/uL
White Blood Cells NEUT (Day 15, dose group 1): 4436.67 X/uL
White Blood Cells WBC (Day 15, dose group 1): 11670 µL⁻¹
Others Het/Poly (Day 15, dose group 3): 30.67%
Red Blood Cells HCT (Day 15, dose group 3): 29.00%
White Blood Cells BASO (Day 15, dose group 3): 406.67 X/uL
White Blood Cells EOS (Day 15, dose group 3): 0.00 X/uL
White Blood Cells LYMP + MONO (Day 15, dose group 3): 8000.00 X/uL
White Blood Cells NEUT (Day 15, dose group 3): 3926.67 X/uL
White Blood Cells WBC (Day 15, dose group 3): 12330 µL⁻¹
Others Het/Poly (Day 15, dose group 20): 31.67%
Red Blood Cells HCT (Day 15, dose group 20): 24.33%
White Blood Cells BASO (Day 15, dose group 20): 180.00 X/uL
White Blood Cells EOS (Day 15, dose group 20): 0.00 X/uL
White Blood Cells LYMP + MONO (Day 15, dose group 20): 5213.33 X/uL
White Blood Cells NEUT (Day 15, dose group 20): 2606.67 X/uL
White Blood Cells WBC (Day 15, dose group 20): 8000 µL⁻¹
Others Het/Poly (Day 21, dose group 1): 28.33%
Red Blood Cells HCT (Day 21, dose group 1): 30.33%
White Blood Cells BASO (Day 21, dose group 1): 630.00 X/uL
White Blood Cells EOS (Day 21, dose group 1): 0.00 X/uL
White Blood Cells LYMP + MONO (Day 21, dose group 1): 7243.33 X/uL
White Blood Cells NEUT (Day 21, dose group 1): 3126.67 X/uL
White Blood Cells WBC (Day 21, dose group 1): 11000 µL⁻¹
Others Het/Poly (Day 21, dose group 3): 29.67%
Red Blood Cells HCT (Day 21, dose group 3): 31.00%
White Blood Cells BASO (Day 21, dose group 3): 523.33 X/uL
White Blood Cells EOS (Day 21, dose group 3): 0.00 X/uL
White Blood Cells LYMP + MONO (Day 21, dose group 3): 6016.67 X/uL
White Blood Cells NEUT (Day 21, dose group 3): 2793.33 X/uL
White Blood Cells WBC (Day 21, dose group 3): 9330 µL⁻¹
Others Het/Poly (Day 21, dose group 20): 35.50%
Red Blood Cells HCT (Day 21, dose group 20): 31.50%
White Blood Cells BASO (Day 21, dose group 20): 850.00 X/uL
White Blood Cells EOS (Day 21, dose group 20): 0.00 X/uL
White Blood Cells LYMP + MONO (Day 21, dose group 20): 6530.00 X/uL
White Blood Cells NEUT (Day 21, dose group 20): 4120.00 X/uL
White Blood Cells WBC (Day 21, dose group 20): 11500 µL⁻¹
Others Het/Poly (Day 28, dose group 1): 56.33%
Red Blood Cells HCT (Day 28, dose group 1): 33.00%
White Blood Cells BASO (Day 28, dose group 1): 260.00 X/uL
White Blood Cells EOS (Day 28, dose group 1): 0.00 X/uL
White Blood Cells LYMP + MONO (Day 28, dose group 1): 2300.00 X/uL
White Blood Cells NEUT (Day 28, dose group 1): 4106.67 X/uL
White Blood Cells WBC (Day 28, dose group 1): 6670 µL⁻¹
Others Het/Poly (Day 28, dose group 3): 59.00%
Red Blood Cells HCT (Day 28, dose group 3): 29.67%
White Blood Cells BASO (Day 28, dose group 3): 450.00 X/uL
White Blood Cells EOS (Day 28, dose group 3): 0.00 X/uL
White Blood Cells LYMP + MONO (Day 28, dose group 3): 3216.67 X/uL
White Blood Cells NEUT (Day 28, dose group 3): 5000.00 X/uL
White Blood Cells WBC (Day 28, dose group 3): 8670 µL⁻¹
Others Het/Poly (Day 28, dose group 20): 44.00%
Red Blood Cells HCT (Day 28, dose group 20): 27.33%
White Blood Cells BASO (Day 28, dose group 20): 393.33 X/uL
White Blood Cells EOS (Day 28, dose group 20): 0.00 X/uL
White Blood Cells LYMP + MONO (Day 28, dose group 20): 3386.67 X/uL
White Blood Cells NEUT (Day 28, dose group 20): 3553.33 X/uL
White Blood Cells WBC (Day 28, dose group 20): 7330 µL⁻¹
Others Het/Poly (Day 35, dose group 1): 33.00%
Red Blood Cells HCT (Day 35, dose group 1): 29.67%
White Blood Cells BASO (Day 35, dose group 1): 386.67 X/uL
White Blood Cells EOS (Day 35, dose group 1): 0.00 X/uL
White Blood Cells LYMP + MONO (Day 35, dose group 1): 4026.67 X/uL
White Blood Cells NEUT (Day 35, dose group 1): 2253.33 X/uL
White Blood Cells WBC (Day 35, dose group 1): 6670 µL⁻¹
Others Het/Poly (Day 35, dose group 3): 31.00%
Red Blood Cells HCT (Day 35, dose group 3): 29.00%
White Blood Cells BASO (Day 35, dose group 3): 423.33 X/uL
White Blood Cells EOS (Day 35, dose group 3): 0.00 X/uL
White Blood Cells LYMP + MONO (Day 35, dose group 3): 4366.67 X/uL
White Blood Cells NEUT (Day 35, dose group 3): 2210.00 X/uL
White Blood Cells WBC (Day 35, dose group 3): 7000 µL⁻¹
Others Het/Poly (Day 35, dose group 20): 34.67%
Red Blood Cells HCT (Day 35, dose group 20): 25.50%
White Blood Cells BASO (Day 35, dose group 20): 393.33 X/uL
White Blood Cells EOS (Day 35, dose group 20): 0.00 X/uL
White Blood Cells LYMP + MONO (Day 35, dose group 20): 4323.33 X/uL
White Blood Cells NEUT (Day 35, dose group 20): 2283.33 X/uL
White Blood Cells WBC (Day 35, dose group 20): 7000 µL⁻¹
Others Het/Poly (Day 42, dose group 1): 31.33%
Red Blood Cells HCT (Day 42, dose group 1): 30.33%
White Blood Cells BASO (Day 42, dose group 1): 450.00 X/uL
White Blood Cells EOS (Day 42, dose group 1): 0.00 X/uL
White Blood Cells LYMP + MONO (Day 42, dose group 1): 6200.00 X/uL
White Blood Cells NEUT (Day 42, dose group 1): 3016.67 X/uL
White Blood Cells WBC (Day 42, dose group 1): 9670 µL⁻¹
Others Het/Poly (Day 42, dose group 3): 34.67%
Red Blood Cells HCT (Day 42, dose group 3): 29.33%
White Blood Cells BASO (Day 42, dose group 3): 466.67 X/uL
White Blood Cells EOS (Day 42, dose group 3): 0.00 X/uL
White Blood Cells LYMP + MONO (Day 42, dose group 3): 5760.00 X/uL
White Blood Cells NEUT (Day 42, dose group 3): 3106.67 X/uL
White Blood Cells WBC (Day 42, dose group 3): 9330 µL⁻¹
Others Het/Poly (Day 42, dose group 20): 35.00%
Red Blood Cells HCT (Day 42, dose group 20): 28.67%
White Blood Cells BASO (Day 42, dose group 20): 406.67 X/uL
White Blood Cells EOS (Day 42, dose group 20): 0.00 X/uL
White Blood Cells LYMP + MONO (Day 42, dose group 20): 4980.00 X/uL
White Blood Cells NEUT (Day 42, dose group 20): 3013.33 X/uL
White Blood Cells WBC (Day 42, dose group 20): 8670 µL⁻¹
Others Het/Poly (Day 49, dose group 1): 27.33%
Red Blood Cells HCT (Day 49, dose group 1): 29.00%
White Blood Cells BASO (Day 49, dose group 1): 213.33 X/uL
White Blood Cells EOS (Day 49, dose group 1): 40.00 X/uL
White Blood Cells LYMP + MONO (Day 49, dose group 1): 5766.67 X/uL
White Blood Cells NEUT (Day 49, dose group 1): 2646.67 X/uL
White Blood Cells WBC (Day 49, dose group 1): 8670 µL⁻¹
Others Het/Poly (Day 49, dose group 3): 34.33%
Red Blood Cells HCT (Day 49, dose group 3): 30.67%
White Blood Cells BASO (Day 49, dose group 3): 243.33 X/uL
White Blood Cells EOS (Day 49, dose group 3): 0.00 X/uL
White Blood Cells LYMP + MONO (Day 49, dose group 3): 5510.00 X/uL
White Blood Cells NEUT (Day 49, dose group 3): 2913.33 X/uL
White Blood Cells WBC (Day 49, dose group 3): 8670 µL⁻¹
Others Het/Poly (Day 49, dose group 20): 43.33%
Red Blood Cells HCT (Day 49, dose group 20): 30.33%
White Blood Cells BASO (Day 49, dose group 20): 296.67 X/uL
White Blood Cells EOS (Day 49, dose group 20): 0.00 X/uL
White Blood Cells LYMP + MONO (Day 49, dose group 20): 4483.33 X/uL
White Blood Cells NEUT (Day 49, dose group 20): 3553.33 X/uL
White Blood Cells WBC (Day 49, dose group 20): 8330 µL⁻¹
